Assay results as given in patent US8808702B2, “Sulfide, sulfoxide and sulfone chalcone analogues, derivatives thereof and therapeutic uses thereof” (Temple University-of the Commonwealth System of Higher …, priority 2006, dated 2014).
Where two headings read alike, the source gives them in different places.

Legend:
DU145 (prostate cancer) = assay: Effect of compounds on tumor cell lines (assay of Latham et al.), DU145; assay type: cell-based; settings: DU145 cells, read-out: DU 145 potency (IC50)
Outline: (§1)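 K562 or DU145 cells plated at 2.5×10^4 cells/well, treated 24 h later with compound in DMSO at 1 μM to 100 μM (0.1 μM to 100 μM for one compound). Activity judged by microscopic observation after 96 h; where needed, viable cells counted by trypan blue exclusion.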

[1] = system: K562 (chronic myelogenous leukaemia); assay: Effect of compounds on tumor cell lines (assay of Latham et al.), K562; assay type: cell-based; settings: K562 cells, read-out: K 562 potency (IC50)
Outline: as §1

[2] = Table 1, examined 96 hours after treatment, 1 μM to 100 μM in DMSO
[3] = 96 hours after treatment, 1 μM to 100 μM
[4] = Table 4, examined 96 hours after treatment, 1 μM to 100 μM in DMSO

Row | IC50 (DU145 (prostate cancer); [3]) [µM] | IC50 [1, 3] [µM] | Structure (SMILES) | IC50 (DU145 (prostate cancer); [2]) [µM] | IC50 [1, 2] [µM] | also measured
1 | – | – | COc1ccc(C(=O)C(=Cc2ccc(OC)c(O)c2)Sc2ccc(F)cc2)cc1 [Example 56] | 10 to 25 | 1 to 10 | –
2 | 10 to 25 | 1 to 10 | O=C(O)c1ccc(C(=O)C(=Cc2ccc([N+](=O)[O-])c(O)c2)SCc2ccc(Br)cc2)cc1 [Example 156] | – | – | –
3 | – | – | CN(C)c1ccc(C=C(Sc2ccc(Br)cc2)C(=O)c2ccc(Cl)cc2)cc1 [Example 49] | > 100 | > 100 | –
4 | – | – | O=C(/C(=C\c1ccc(Br)cc1)S(=O)(=O)Cc1ccc(F)cc1)c1ccc(Cl)cc1 [Example 410] | – | – | IC50 (DU145 (prostate cancer); Homo sapiens, DU-145, Table 4, examined 96 hours after treatment, 1 μM to 100 μM in DMSO): > 100 µM; IC50 ([1]; Homo sapiens, Table 4, examined 96 hours after treatment, 1 μM to 100 μM in DMSO): 50 to 100 µM
5 | 10 to 25 | 1 to 10 | O=C(C(=Cc1cccc(Cl)c1Cl)SCc1ccc(Cl)cc1)c1ccc(Cl)cc1 [Example 191] | – | – | –
6 | 10 to 25 | 1 to 10 | O=C(/C(=C\c1ccc(F)c([N+](=O)[O-])c1)SCc1ccc(F)cc1)c1ccc(SCc2ccc(F)cc2)c([N+](=O)[O-])c1 [Example 335] | – | – | –
7 | 10 to 25 | 1 to 10 | CCOc1cc(C=C(SCc2ccc(Cl)cc2Cl)C(=O)c2ccc(Cl)cc2)ccc1O [Example 117] | – | – | –
8 | ≤ 1 | ≤ 1 | O=C(/C(=C\c1ccc(F)c([N+](=O)[O-])c1)SCc1ccc(F)cc1)c1ccc(O)cc1 [Example 342] | – | – | –
9 | 1 to 10 | ≤ 1 | Cc1ccc(CS/C(=C/c2ccc(F)c([N+](=O)[O-])c2)C(=O)c2ccc(Cl)c([N+](=O)[O-])c2)cc1 [Example 349] | – | – | –
10 | ≤ 1 | ≤ 1 | O=C(C(=Cc1ccc(F)c([N+](=O)[O-])c1)SCc1ccc(Br)cc1)c1ccc(F)cc1 [Example 318] | – | – | –
11 | 1 to 10 | 1 to 10 | O=C(C(=Cc1cccnc1)SCc1ccc(Cl)cc1)c1ccc(Br)cc1 [Example 321] | – | – | –
12 | – | – | CCN(CC)CCNC(=O)c1c(C)[nH]c(/C=C(\C(=O)c2ccc(Br)cc2)S(=O)(=O)Cc2ccc(Br)cc2)c1C [Example 370] | – | – | IC50 (DU145 (prostate cancer); [4]): 1 to 10 µM; IC50 [1, 4]: 1 to 10 µM
13 | 25 to 50 | 10 to 25 | O=C(C(=Cc1ccc[nH]1)SCc1ccc(Cl)cc1)c1ccc(Cl)cc1 [Example 201] | – | – | –
14 | – | – | O=C(O)c1cc(C=C(Sc2ccc(Br)cc2)C(=O)c2c(F)c(F)c(F)c(F)c2F)ccc1O [Example 28] | 25 to 50 | 25 to 50 | –
15 | 10 to 25 | 10 to 25 | COc1cc(OC)c(C=C(SCc2ccc(F)cc2)C(=O)c2ccc(Cl)cc2)c(OC)c1 [Example 234] | – | – | –
16 | 1 to 10 | ≤ 1 | O=C(O)c1ccc(C(=O)C(=Cc2ccc(Cl)c([N+](=O)[O-])c2)SCc2ccc(Cl)cc2Cl)cc1 [Example 300] | – | – | –
17 | – | – | O=C(C(=Cc1ccc(O)c([N+](=O)[O-])c1)Sc1c(F)c(F)c(F)c(F)c1F)c1ccc(Br)cc1 [Example 2] | 10 to 25 | 10 to 25 | –
18 | 10 to 25 | 1 to 10 | Cc1ccc(CSC(=Cc2ccc(O)cc2)C(=O)c2ccc(Cl)cc2)cc1 [Example 292] | – | – | –
19 | 10 to 25 | 1 to 10 | O=C(C(=Cc1ccc(Cl)cc1)SCc1ccc(Cl)cc1)c1ccc(Br)cc1 [Example 218] | – | – | –
20 | – | – | O=C(C(=Cc1ccccc1OCc1ccccc1)Sc1ccc(Br)cc1)c1ccc(Cl)cc1 [Example 21] | 10 to 25 | 10 to 25 | –
21 | – | – | O=C(O)c1ccc(C(=O)C(=Cc2ccc(F)c([N+](=O)[O-])c2)Sc2c(F)c(F)c(F)c(F)c2F)cc1 [Example 112] | 1 to 10 | ≤ 1 | –
22 | – | – | COc1ccc(C(=O)C(=Cc2ccc(Cl)cc2)Sc2ccc(F)cc2)cc1 [Example 58] | > 100 | > 100 | –
23 | > 100 | > 100 | Cc1ccsc1C=C(SCc1ccc(Cl)cc1)C(=O)c1ccc([N+](=O)[O-])cc1 [Example 207] | – | – | –
24 | 1 to 10 | 1 to 10 | Cc1ccc(CSC(=Cc2cc([N+](=O)[O-])ccc2F)C(=O)c2ccc(Cl)cc2)cc1 [Example 276] | – | – | –
25 | – | – | Nc1c(Br)cc(Br)cc1C=C(Sc1ccc(Br)cc1)C(=O)c1ccc(Br)cc1 [Example 20] | > 100 | > 100 | –
26 | 1 to 10 | 1 to 10 | O=C(C(=Cc1ccccc1OCc1ccccc1)SCc1ccc(F)cc1)c1ccc(Br)cc1 [Example 236] | – | – | –
